# Experimental data published in ChEMBL document CHEMBL3351448, “Discovery of (7-aryl-1,5-naphthyridin-2-yl)ureas as dual inhibitors of ERK2 and Aurora B kinases with antiproliferative activity against cancer cells” (Bioorg Med Chem Lett, 2014).
# pIC50: −log10 of the molar value.
# How the values were obtained:
# [1] = Antiproliferative activity against human HCT116 cells; format: functional, cell-based; conditions: HCT-116
# A549 = experiment: Antiproliferative activity against human A549 cells; format: functional, cell-based
# [2] = target: Vascular endothelial growth factor receptor 2 (Homo sapiens, UniProt P35968); experiment: Inhibition of KDR (unknown origin)
# [3] = target: Tyrosine-protein kinase ABL1 (Homo sapiens, UniProt P00519); experiment: Inhibition of c-Abl (unknown origin)
# [4] = target: Homeodomain-interacting protein kinase 1 (Homo sapiens, UniProt Q86Z02); experiment: Inhibition of HIPK1 (unknown origin)
# [5] = Antiproliferative activity against human U87MG cells; format: functional, cell-based, U-87MG ATCC; conditions: U-87 MG
# [6] = target: Tyrosine-protein kinase Yes (Homo sapiens, UniProt P07947); experiment: Inhibition of YES (unknown origin)
# [7] = Antiproliferative activity against human PC3 cells; format: functional, cell-based; conditions: PC-3
# [8] = target: Serine/threonine-protein kinase pim-1 (Homo sapiens, UniProt P11309); experiment: Inhibition of PIM1 (unknown origin)
# MDA-MB-468 = experiment: Antiproliferative activity against human MDA-MB-468 cells; format: functional, cell-based
# [9] = target: High affinity nerve growth factor receptor (Homo sapiens, UniProt P04629); experiment: Inhibition of TrkA (unknown origin)
# [10] = Chromatographic hydrophobicity index, CHI of the compound by RP-HPLC method; format: physicochemical
# [11] = Stability in mouse liver microsomes assessed as parent compound remaining after 1 hr; format: ADME; conditions: read-out: Stability
# [12] = Solubility in PBS buffer at pH 7.4 in presence of 1% BSA; format: physicochemical; conditions: PBS buffer with 1% BSA
# [13] = Lipophilicity, logD of the compound at pH 7.4 by RP-HPLC method based chromatographic hydrophobicity index determination; format: physicochemical; conditions: buffer
# [14] = Permeability from apical to basolateral side in human Caco2 cells in presence of 1% BSA; format: ADME, cell-based; conditions: Caco-2, read-out: permeability
# [15] = Stability in mouse plasma assessed as parent compound remaining after 6 hrs; format: ADME, cell-free; conditions: read-out: Stability
# [16] = target: Voltage-gated inwardly rectifying potassium channel KCNH2 (Homo sapiens, UniProt Q12809); experiment: Binding affinity to human ERG
# Cytochrome P450 3A4 = Cytochrome P450 3A4 (Homo sapiens, UniProt P08684); experiment: Inhibition of CYP3A4 (unknown origin); format: ADME
# [17] = Efflux ratio in human Caco2 cells in presence of 1% BSA; format: ADME, cell-based; conditions: Caco-2
# [18] = Permeability from basolateral to apical side in human Caco2 cells in presence of 1% BSA; format: ADME, cell-based; conditions: Caco-2, read-out: permeability
# [19] = target: Mitogen-activated protein kinase 1 (Homo sapiens, UniProt P28482); experiment: Inhibition of ERK2 (unknown origin)
# Sequence of High affinity nerve growth factor receptor (P04629 whole entry): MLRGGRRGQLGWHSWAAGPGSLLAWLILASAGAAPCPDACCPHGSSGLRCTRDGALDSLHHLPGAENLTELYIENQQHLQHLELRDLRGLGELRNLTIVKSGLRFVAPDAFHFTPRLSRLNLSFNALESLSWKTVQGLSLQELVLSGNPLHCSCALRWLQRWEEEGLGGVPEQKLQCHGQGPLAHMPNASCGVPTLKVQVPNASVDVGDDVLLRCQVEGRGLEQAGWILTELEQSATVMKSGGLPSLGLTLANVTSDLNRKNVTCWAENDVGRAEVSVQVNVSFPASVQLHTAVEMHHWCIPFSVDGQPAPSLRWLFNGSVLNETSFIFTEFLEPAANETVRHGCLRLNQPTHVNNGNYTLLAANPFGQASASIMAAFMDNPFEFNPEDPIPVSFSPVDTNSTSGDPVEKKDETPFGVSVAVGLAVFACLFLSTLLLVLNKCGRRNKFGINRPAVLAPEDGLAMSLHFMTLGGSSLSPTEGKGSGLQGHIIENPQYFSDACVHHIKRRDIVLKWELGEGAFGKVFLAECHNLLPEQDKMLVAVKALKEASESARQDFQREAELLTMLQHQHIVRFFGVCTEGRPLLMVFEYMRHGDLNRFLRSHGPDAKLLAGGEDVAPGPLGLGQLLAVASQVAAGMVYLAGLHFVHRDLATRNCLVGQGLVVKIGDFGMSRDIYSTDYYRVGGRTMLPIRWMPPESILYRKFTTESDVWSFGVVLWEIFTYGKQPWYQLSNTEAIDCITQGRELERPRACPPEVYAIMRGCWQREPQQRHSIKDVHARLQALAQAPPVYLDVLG
# Sequence of Homeodomain-interacting protein kinase 1 (Q86Z02 whole entry): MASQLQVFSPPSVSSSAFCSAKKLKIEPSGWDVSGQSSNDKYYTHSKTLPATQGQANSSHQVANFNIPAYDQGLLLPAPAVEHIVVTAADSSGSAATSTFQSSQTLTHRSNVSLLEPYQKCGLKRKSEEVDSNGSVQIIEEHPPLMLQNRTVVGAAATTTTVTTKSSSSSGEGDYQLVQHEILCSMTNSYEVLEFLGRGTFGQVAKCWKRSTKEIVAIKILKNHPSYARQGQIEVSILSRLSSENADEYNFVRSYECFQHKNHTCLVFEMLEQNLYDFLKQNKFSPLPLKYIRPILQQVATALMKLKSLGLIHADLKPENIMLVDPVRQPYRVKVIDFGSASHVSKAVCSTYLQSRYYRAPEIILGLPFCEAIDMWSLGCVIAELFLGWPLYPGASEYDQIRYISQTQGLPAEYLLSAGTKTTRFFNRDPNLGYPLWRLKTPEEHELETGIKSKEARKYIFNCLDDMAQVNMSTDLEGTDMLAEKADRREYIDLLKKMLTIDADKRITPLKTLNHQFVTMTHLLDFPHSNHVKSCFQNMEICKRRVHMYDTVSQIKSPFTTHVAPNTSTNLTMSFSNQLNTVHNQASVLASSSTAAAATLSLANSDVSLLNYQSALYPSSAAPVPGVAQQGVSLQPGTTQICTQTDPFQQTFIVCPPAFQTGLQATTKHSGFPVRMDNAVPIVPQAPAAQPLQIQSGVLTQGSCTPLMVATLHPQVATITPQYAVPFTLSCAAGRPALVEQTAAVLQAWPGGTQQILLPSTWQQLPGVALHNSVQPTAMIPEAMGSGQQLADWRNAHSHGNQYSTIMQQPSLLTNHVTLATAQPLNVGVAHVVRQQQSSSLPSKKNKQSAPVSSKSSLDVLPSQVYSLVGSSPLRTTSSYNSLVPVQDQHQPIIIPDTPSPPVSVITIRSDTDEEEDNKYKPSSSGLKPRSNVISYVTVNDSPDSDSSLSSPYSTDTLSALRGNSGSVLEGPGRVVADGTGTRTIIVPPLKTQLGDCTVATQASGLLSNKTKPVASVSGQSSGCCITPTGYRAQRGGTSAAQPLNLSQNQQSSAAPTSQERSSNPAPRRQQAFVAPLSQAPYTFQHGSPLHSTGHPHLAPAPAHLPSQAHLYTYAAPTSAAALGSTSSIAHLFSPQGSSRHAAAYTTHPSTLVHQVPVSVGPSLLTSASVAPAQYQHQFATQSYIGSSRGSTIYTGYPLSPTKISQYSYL
# Sequence of Tyrosine-protein kinase ABL1 (P00519 whole entry): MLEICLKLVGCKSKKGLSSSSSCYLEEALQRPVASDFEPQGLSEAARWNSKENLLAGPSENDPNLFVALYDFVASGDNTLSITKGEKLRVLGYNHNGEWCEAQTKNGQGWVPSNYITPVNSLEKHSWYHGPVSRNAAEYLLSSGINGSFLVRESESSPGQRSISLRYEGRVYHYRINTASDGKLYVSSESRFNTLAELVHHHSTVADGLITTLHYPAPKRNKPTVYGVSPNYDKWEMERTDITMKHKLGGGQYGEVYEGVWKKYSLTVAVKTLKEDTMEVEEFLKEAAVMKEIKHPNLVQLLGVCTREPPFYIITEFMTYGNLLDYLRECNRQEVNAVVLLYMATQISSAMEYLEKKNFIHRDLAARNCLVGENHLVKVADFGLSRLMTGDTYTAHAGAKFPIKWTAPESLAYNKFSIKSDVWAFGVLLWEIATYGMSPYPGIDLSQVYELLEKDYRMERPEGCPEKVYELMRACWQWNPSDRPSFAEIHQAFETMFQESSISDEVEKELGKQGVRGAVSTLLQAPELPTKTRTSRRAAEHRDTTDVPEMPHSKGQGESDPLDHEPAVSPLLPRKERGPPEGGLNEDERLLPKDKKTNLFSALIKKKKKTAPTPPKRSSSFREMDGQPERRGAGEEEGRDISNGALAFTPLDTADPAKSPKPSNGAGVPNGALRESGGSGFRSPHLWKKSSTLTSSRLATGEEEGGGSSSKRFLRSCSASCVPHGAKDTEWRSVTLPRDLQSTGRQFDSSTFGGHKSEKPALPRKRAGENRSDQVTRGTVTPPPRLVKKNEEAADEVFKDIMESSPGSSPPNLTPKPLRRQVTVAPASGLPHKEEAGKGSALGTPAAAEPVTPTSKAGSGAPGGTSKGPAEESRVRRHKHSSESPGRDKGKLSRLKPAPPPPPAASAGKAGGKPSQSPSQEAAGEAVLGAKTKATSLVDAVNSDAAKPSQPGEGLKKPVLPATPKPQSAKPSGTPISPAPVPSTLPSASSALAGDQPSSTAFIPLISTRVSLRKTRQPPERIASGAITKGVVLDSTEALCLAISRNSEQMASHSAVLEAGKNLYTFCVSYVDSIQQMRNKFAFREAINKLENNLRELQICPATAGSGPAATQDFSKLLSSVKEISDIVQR
# Sequence of Vascular endothelial growth factor receptor 2 (P35968 whole entry): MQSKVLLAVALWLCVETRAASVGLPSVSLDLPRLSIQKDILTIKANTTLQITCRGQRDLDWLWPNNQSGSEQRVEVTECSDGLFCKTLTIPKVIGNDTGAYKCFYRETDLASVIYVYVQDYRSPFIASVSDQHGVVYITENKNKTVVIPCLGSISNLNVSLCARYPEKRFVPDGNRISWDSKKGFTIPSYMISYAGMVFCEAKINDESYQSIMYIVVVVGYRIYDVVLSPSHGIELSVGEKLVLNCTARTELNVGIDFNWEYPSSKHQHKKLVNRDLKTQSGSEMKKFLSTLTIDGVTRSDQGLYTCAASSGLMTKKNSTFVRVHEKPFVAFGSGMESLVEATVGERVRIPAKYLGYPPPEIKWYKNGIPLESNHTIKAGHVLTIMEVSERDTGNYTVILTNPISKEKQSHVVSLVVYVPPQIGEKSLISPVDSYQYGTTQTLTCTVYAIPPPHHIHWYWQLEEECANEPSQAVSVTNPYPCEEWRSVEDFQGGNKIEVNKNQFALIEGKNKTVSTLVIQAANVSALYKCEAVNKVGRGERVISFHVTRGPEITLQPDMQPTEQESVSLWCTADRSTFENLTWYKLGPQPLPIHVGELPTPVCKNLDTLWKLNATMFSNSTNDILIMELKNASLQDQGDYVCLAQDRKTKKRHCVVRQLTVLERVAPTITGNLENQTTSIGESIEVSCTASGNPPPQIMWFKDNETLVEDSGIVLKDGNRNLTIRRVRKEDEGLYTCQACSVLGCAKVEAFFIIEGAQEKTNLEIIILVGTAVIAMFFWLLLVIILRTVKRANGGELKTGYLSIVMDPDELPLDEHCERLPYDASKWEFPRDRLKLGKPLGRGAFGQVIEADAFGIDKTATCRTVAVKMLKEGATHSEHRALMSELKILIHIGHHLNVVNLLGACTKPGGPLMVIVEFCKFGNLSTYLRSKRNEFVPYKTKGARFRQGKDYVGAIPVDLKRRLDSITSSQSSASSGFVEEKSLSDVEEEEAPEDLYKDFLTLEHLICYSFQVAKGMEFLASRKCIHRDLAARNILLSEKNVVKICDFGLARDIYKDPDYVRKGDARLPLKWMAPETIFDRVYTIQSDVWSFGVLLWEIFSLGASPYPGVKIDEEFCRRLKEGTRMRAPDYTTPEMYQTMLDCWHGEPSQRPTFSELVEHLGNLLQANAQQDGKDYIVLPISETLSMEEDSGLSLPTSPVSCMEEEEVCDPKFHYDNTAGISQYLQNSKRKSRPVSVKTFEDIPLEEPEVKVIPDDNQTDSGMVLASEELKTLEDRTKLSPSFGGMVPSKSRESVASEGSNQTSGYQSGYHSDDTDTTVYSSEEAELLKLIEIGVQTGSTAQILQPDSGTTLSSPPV
# Sequence of Tyrosine-protein kinase Yes (P07947 whole entry): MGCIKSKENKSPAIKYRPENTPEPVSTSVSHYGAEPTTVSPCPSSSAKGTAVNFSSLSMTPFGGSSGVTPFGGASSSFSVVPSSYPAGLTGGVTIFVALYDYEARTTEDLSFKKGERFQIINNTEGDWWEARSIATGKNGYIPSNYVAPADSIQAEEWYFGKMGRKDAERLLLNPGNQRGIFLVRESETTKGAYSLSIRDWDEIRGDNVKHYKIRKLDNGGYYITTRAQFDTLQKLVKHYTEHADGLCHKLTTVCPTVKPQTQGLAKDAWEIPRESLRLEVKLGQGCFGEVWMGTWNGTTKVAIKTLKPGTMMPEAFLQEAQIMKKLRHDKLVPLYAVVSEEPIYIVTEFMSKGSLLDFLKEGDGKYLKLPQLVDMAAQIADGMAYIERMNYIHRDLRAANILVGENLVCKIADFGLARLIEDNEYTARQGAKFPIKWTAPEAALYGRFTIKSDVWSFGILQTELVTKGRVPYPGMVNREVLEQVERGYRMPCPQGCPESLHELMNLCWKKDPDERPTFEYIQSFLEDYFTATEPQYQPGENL
pIC50 (A549),pIC50 [2],pIC50 [3],pIC50 [4],pIC50 [6],pIC50 [8],pIC50 (MDA-MB-468),pIC50 [9],CHI [10],remaining at 1 h [11],solubility [12],chromatographic logD [13],Compound,pIC50 [1],pIC50 [5],pIC50 [7],other results
< 4.30,< 4.00,4.68,< 4.00,< 4.00,4.43,< 4.30,< 4.00,–,–,–,–,CCNC(=O)Nc1ccc2ncc(-c3ccc(OC)cc3)cc2n1,4.80,< 4.30,< 4.30,–
< 4.30,< 4.00,< 4.00,4.87,4.38,< 4.00,4.66,< 4.00,73.3,45.4%,5.7 µM,2.4,CCNC(=O)Nc1ccc2ncc(-c3ccc(OC)c(OC)c3)cc2n1,5.36,< 4.30,< 4.30,–
< 4.30,< 4.00,< 4.00,< 4.00,4.07,< 4.00,< 4.30,< 4.00,88.8,70.4%,8.5 µM,3.2,COc1ccc(-c2cnc3ccc(NC(=O)NC(C)(C)C)nc3c2)cc1OC,< 4.30,< 4.30,< 4.30,–
4.85,< 4.00,< 4.00,< 4.00,4.37,< 4.00,5.41,4.09,79.3,–,–,2.7,COc1cc(-c2cnc3ccc(NC(=O)NC(C)(C)C)nc3c2)ccc1O,5.34,5.01,5.31,–
6.00,< 4.00,5.22,< 4.00,5.10,< 4.00,5.71,5.35,76.1,–,–,2.5,Cn1cc(-c2cnc3ccc(NC(=O)NC(C)(C)C)nc3c2)cn1,6.19,< 4.30,6.17,–
5.51,< 4.00,< 4.00,< 4.00,< 4.00,< 4.50,5.88,< 4.00,73.3,–,–,2.4,Cn1cc(-c2cnc3ccc(NC(=O)Nc4ccccc4)nc3c2)cn1,5.86,< 4.30,5.86,–
< 4.30,< 4.00,< 4.00,< 4.00,< 4.00,< 4.50,< 4.30,< 4.00,69.4,–,–,2.2,Cn1cc(-c2cnc3ccc(NC(=O)NCc4ccccc4)nc3c2)cn1,6.72,< 4.30,< 4.30,–
–,< 4.00,< 4.00,< 4.00,4.57,4.49,5.74,4.90,71.6,81.1%,3.9 µM,2.3,Cn1cc(-c2cnc3ccc(NC(=O)NCCc4ccccc4)nc3c2)cn1,5.92,< 4.30,–,Papp A→B [14]: 64 ×10⁻⁶ cm/s; remaining at 6 h [15]: 96.7%; INH [16]: > 60 µM; INH (Cytochrome P450 3A4): > 100 µM; efflux ratio [17]: 0.45; Papp B→A [18]: 29 ×10⁻⁶ cm/s
–,–,–,–,–,–,–,–,–,–,–,–,Cn1cc(-c2cnc3c(NC(=O)NC(C)(C)C)ccnc3c2)cn1,–,–,–,pIC50 [19]: 4.50
